According to patent publication US20250298027A1, “METHOD OF EVALUATING SMALL MOLECULE DISTRIBUTION USING TELLUROPHENE ANALOGUES” (THE GOVERNING COUNCIL OF THE UNIVERSITY OF TORONTO, priority 2022, published 2025):
“And” between values parts separate entries of the source, which are not always exact repeats. Equal values may be shown once. Read-outs that look alike come from different tables or passages of the source.

Experiments:
Jurkat cells [1] = experiment: Cell viability in Jurkat cells (WST-1); type: cell-based
Protocol: In Jurkat cells treated with increasing concentrations of TeCar 7b, a concentration-dependent reduction in overall cell viability was observed (Table 1). When compared to Carfilzomib, similar concentrations of 7b (Te-Car) were needed to produce a 50% reduction in Jurkat cell viability.
Jurkat cells (CRL-2899) were purchased from ATCC were maintained in Rosewell Park Memorial Institute (RPMI) media supplemented with 10% fetal bovine serum (FBS) and 1% penicillin/streptomycin in a humidified 37° C. incubator with 5% CO2 (g), and cultured as per ATCC guidelines in culture flasks purchased from Starstedt.
Jurkat cells, at a concentration of approximately 12 500 cells/mL, were seeded in a 96 well plate in complete media in dosed with increasing concentrations (0-200 nM) of Carfilzomib or 7b (100 ul final volume) and left to incubate for 44 hours. Each concentration was repeated in triplicate. 10 uL of WST-1 was then added to each well, and the plate was allowed to incubate for 2 hours before the absorbance at 440 nm was measured. Absorbance signal in 100 uL complete media+10 uL WST-1 was first subtracted from each well before plotting the absorbance signal vs log (concentration). The concentration needed to see a 50% reduction in absorbance signal was then determined using GraphPad Prism software.

Jurkat cells [2] = experiment: 7b and 8b incorporation into living Jurkat cells with or without Carfilzomib (CyTOF); type: cell-based; settings: 1 hour
Protocol: Co-dosing of cells with Te-Car 7b and Car lead to an approximately 50% reduction in Te labelling confirming the on-target labelling of modified compound (FIG. 10). This evidence supports that TeCar can be used to monitor Carfilzomib's target engagement in a more complex and disease-relevant samples.
Jurkat cells were seeded in […] plastic culture flasks at a concentration of approximately 5 million cells/mL for 24 hours prior to dosing. The cells were dosed with either Carfilzomib, 7b, or 8b at a final concentration of 500 nM, or a combination of Carfilzomib/7b (500 nM each), Carfilzomib/8b (500 nM each), or a DMSO control (final percentage of 0.5%) in complete media for 1 hour.
The media was then immediately removed, and the cells resuspended in 3 mL of cold phosphate-buffered saline (PBS), before being aliquoted into three 1 mL aliquots per each dosing regime. The samples were then prepped for CYTOF® analysis.
Briefly, each sample aliquot was washed three times with cold PBS (1 mL×3). The cells were then fixed, permeabilized, and stained with Cell-ID™ Intercalator-Ir stain in PBS (1 mL) for 1 hour at rt. […]
CYTOF® analysis was conducted the following day. […] The average ^128Te signal in the population of cells (events positive for 191 Ir and 193Ir signal) for each sample was determined.

pH2AX^Ser139 [3] = experiment: pH2AX Western blotting in PANC-1 cells; type: cell-based, Human; settings: 1 μM, 24 and 48 hours
Protocol: Next, the ability of 1 to induce DSBs—the dominant type of DNA damage resulting from Top2 inhibition was investigated. In response to DSBs, a cascade of DNA repair mechanisms are triggered, including-phosphorylation of the histone variant H2AX at Ser139. Thus, the level of pH2AX^Ser139 serves as a reliable marker for Top2-linked DSBs. Western blotting was used to measure pH2AX^Ser139 in PANC-1 cells treated with 1 μM of either 1 or teniposide for 24 and 48 hours.
pH2AX Blotting: PANC-1 cells (0.5×10^6) cells were seeded in 60 mm plastic petri dishes (Corning Inc. NY) and incubated for 18 h. The spent medium is removed and replaced with fresh medium containing drug ([…]) and incubated for either 24 or 48h. Control cells were treated with DMSO only. The cells were then lysed with RIPA buffer (25 mM Tris·HCl PH 7.6, 150 mM NaCl, 1% NP-40, 1% sodium deoxycholate, 0.1% SDS) (ThermoFisher Scientific) containing Halt Protease Inhibitor Cocktail (Cat. No. 78410) and Halt Phosphatase Inhibitor Cocktail (Cat. No. 78420) as per manufacturer's protocol. […] Antibodies (Abcam, Cambridge, MA) targeting the following proteins were used H2AX (S139) (ab11174, polyclonal) and β-tubulin (ab6046, polyclonal).

Top2 [4] = molecular target: T1, Top2 (Homo sapiens, UniProt P11388); experiment: Top2 decatenation assay using kinetoplast DNA; type: biochemical; settings: 5, 10, 25 and 50 μM
T1 construct: purchased TopoGEN, Inc
Protocol: The relative Top2 inhibitory activity of 1 in comparison to teniposide was evaluated in decatenation assays using kinetoplast DNA (kDNA). Decatenation of the DNA, catalyzed by Top2, can be readily resolved using agarose gel electrophoresis.
Top2 decatenation assay: The assay was performed according to manufacturer's protocol (TopoGEN, Inc.). The total reaction volume was 20 μL of assay buffer (120 mM KCl, 50 mM Tris-HCl, 10 mM MgCl2, 0.5 mM DTT, 0.5 mM ATP, and 30 μg/mL BSA) and 120 ng of kinetoplast DNA (kDNA) substrate. One unit of TopoII enzyme in was added to reaction microfuge tubes in the presence or absence of inhibitor. The reaction was incubated for 30 min at 37° C. The reaction was stopped by addition of 5 μL of stop buffer (5% sarkosyl, 0.025% bromophenolblue, and 50% glycerol). The samples were then analyzed using electrophoresis using a 1% agarose gel in Tris-borate-EDTA buffer with 0.5 pg/mL ethidium bromide stain. Gels were imaged using Syngene G: Box Gel Imager (Chemi-XT4 GENESys software with preset for ethidium bromide stained agarose gels). Band intensities were analyzed using ImageJ software.

pH2AX^Ser139 [5] = experiment: pH2AX immunohistochemistry of PANC-1 xenograft tumour sections; type: in vivo, mice; settings: 20 mg/kg IP, 2 hours
Protocol: PANC-1 xenograft-bearing mice were injected with either teniposide or the Te-teniposide analogue 1 IP. A dose of 20 mg/kg was selected based on literature reports detailing teniposide drug delivery strategies. After 2 hours, mice were sacrificed and tissues of interest were harvested, formalin fixed, and paraffin embedded. Tissue sections (5 um) were cut and mounted onto microscopy slides. The expression of pH2AX^Ser139 levels were first assessed by immunohistochemistry. Serial sections derived from PANC-1 xenograft tumours were stained with primary antibody and subsequently HRP-conjugated secondary antibody for standard brown staining. DSBs are indicated by large, discrete pH2AX^Ser139 foci. Representative images of immunostained slides show increased pH2AX^Ser139 levels in treated mice relative to saline injected control with clear, punctate staining (FIG. 7).

Top2 [6] = settings: fluorescence anisotropy and DNA relaxation gel assays; read-out: IC50 of teniposide in literature; cited from earlier work
[7] = mice, depending on route of administration and dosing regimen; cited from earlier work
HL-60 cells = experiment: WST-1 viability assay in HL-60 cells; type: cell-based; settings: Homo sapiens, HL-60; 24 hours, maximum concentration of 50 μM; read-out: inhibition of proliferation of HL-60 cells
Protocol: The toxicity of 1 was compared to teniposide in HL-60 cells after incubation for 24 hours using a WST-1 viability assay.
WST-1 metabolic cytotoxicity assay: HL-60 cells (ATCC® CCL-240TM) were maintained in DMEM media with 2 mM L-glutamine (Gibco) supplemented with 20% calf serum and 100× dilution of penicillin-streptomycin solution (Gibco). Cells were maintained at 37° C. in a humidified atmosphere of 5% CO2 in air. HL-60 cells (100 pL) were seeded into a 96 well clear at a density of 5×10^5 cells/mL. Cells were treated with either DMSO or appropriate inhibitor from DMSO stocks. […] Cells were incubated for 24 h at 37° C. under a 5% CO2 atmosphere. WST-1 reagent (10 pL; Roche Diagnostics, 05015944001) was added to each well and gently mixed by pipetting. Cells were incubated for 1 h at 37° C. under 5% CO2 atmosphere. UV-vis absorbance measurements of each well at 450 nm was recorded using a TECAN Safire 2 plate reader. Data was background corrected against wells that contained cell growth media without cells and WST-1. Experiment was performed in triplicate.

PANC-1 cells = experiment: alamarBlue viability assay in PANC-1 cells; type: cell-based, Human; settings: maximum dose of 25 μM, 72 hours exposure
Protocol: Similarly, PANC1 cells were characterized for later in vivo experiments. Using an alamarBlue viability assay and a proliferative assay, PANC-1 cells were incubated with 1 or teniposide.
AlamarBlue assay: PANC-1 cells were seeded into black, clear-bottom 96-well assay plates (Corning; CLS3603) and incubated for 24 hours. The medium was replaced with […] of teniposide or compound 1. After 72 hours exposure to drug, alamarBlue (Thermo Fisher Scientific; DAL1100) cell viability reagent was added and incubated for 4 hours at 37° C. Fluorescence intensity was measured using an excitation wavelength of 560 nm and an emission of 590 nm. Cell viability was calculated by normalizing to an untreated control.

T1 sequence (P11388 whole entry): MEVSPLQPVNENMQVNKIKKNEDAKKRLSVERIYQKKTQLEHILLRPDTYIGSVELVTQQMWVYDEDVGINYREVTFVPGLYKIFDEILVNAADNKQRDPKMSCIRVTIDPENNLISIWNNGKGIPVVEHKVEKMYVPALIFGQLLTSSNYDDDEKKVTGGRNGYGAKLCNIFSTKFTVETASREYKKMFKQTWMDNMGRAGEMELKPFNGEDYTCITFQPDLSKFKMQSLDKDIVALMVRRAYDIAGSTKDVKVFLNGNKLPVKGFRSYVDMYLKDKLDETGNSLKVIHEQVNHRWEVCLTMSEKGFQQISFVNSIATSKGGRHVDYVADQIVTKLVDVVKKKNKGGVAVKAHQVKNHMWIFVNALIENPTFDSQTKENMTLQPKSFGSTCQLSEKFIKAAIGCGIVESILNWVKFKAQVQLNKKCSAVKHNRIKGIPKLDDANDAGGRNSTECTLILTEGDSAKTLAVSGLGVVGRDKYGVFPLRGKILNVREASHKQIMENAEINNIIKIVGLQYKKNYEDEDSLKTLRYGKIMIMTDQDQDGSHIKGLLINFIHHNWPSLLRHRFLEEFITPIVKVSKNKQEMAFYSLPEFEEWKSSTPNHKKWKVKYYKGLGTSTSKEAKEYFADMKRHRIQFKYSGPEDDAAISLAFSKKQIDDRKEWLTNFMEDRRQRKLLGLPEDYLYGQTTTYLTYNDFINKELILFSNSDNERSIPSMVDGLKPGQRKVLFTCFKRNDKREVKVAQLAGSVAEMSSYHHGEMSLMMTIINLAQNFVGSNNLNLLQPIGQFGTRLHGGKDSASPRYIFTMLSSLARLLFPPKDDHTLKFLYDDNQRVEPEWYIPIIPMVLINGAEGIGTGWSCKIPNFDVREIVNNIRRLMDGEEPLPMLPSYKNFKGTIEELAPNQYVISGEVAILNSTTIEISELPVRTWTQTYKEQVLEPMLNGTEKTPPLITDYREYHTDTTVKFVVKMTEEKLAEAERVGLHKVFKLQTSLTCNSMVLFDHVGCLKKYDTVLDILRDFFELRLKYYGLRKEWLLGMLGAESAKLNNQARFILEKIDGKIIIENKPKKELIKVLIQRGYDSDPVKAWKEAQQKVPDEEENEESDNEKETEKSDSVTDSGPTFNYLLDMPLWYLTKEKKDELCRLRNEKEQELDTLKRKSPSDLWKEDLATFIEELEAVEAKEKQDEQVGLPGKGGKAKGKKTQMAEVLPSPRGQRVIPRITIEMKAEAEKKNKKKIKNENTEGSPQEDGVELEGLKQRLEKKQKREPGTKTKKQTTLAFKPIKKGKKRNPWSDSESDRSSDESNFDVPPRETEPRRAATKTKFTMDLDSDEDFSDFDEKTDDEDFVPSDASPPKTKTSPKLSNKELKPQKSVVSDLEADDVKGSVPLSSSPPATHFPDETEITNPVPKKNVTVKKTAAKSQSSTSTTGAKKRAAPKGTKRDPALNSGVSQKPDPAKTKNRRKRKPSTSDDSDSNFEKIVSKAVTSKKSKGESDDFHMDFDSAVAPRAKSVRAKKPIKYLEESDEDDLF

Question: For `CC(C)C[C@H](NC(=O)[C@H](CCc1ccccc1)NC(=O)CN1CCOCC1)C(=O)N[C@@H](Cc1ccccc1)C(=O)N[C@@H](CC(C)C)C(=O)[C@@]1(C)CO1` [Carfilzomib, reference compound], which IC50 (Jurkat cells [1]; 44 hours, WST-1, Biol. Rep 1-3, read-out: IC50, viability of Jurkat cells, single biological replicate) is on record?
Answer: Its IC50 is 9.99 nM and 9.41 nM.

Question: And the IC50 (Jurkat cells [1]; Homo sapiens, Jurkat, 44 h, WST-1, Biol. Rep 1-3, read-out: IC50, viability of Jurkat cells, single biological replicate)?
Answer: Its IC50 is 9.13 nM.

Question: And the IC50 (Jurkat cells [1]; Homo sapiens, Jurkat, 44 h, WST-1, average of 3 biological replicates, read-out: IC50, viability of Jurkat cells, Average +/− SD)?
Answer: The IC50 was 9.51 nM.

Question: With `CC(C)C[C@H](NC(=O)[C@H](CCc1ccccc1)NC(=O)CN1CCOCC1)C(=O)N[C@@H](Cc1ccc[te]1)C(=O)N[C@@H](CC(C)C)C(=O)[C@@]1(C)CO1` (single isomer, unassigned) [7b] as the molecule, how does the IC50 (Jurkat cells [1]; Homo sapiens, Jurkat, 44 h, read-out: IC50, viability of Jurkat cells, Average +/− SD, 44 hours, WST-1, average of 3 biological replicates) read?
Answer: The IC50 was 9.71 nM.

Question: What about the IC50 (Jurkat cells [1]; Homo sapiens, Jurkat, 44 h, read-out: IC50, viability of Jurkat cells, single biological replicate, 44 hours, WST-1, Biol. Rep 1-3) of the same molecule?
Answer: Its IC50 is 9.48 nM.

Question: What about the IC50 (Jurkat cells [1]; read-out: IC50, viability of Jurkat cells, single biological replicate, 44 hours, WST-1, Biol. Rep 1-3) of the same molecule?
Answer: Its IC50 is 9.87 nM and 9.78 nM.

Question: And the “reduction in Te labelling on co-dosing with Carfilzomib” value (Jurkat cells [2]; 7b and Carfilzomib 500 nM each, ^128Te)?
Answer: The value was “approximately 50%”.

Question: What about the “accumulation of tellurium within the cells” value (Jurkat cells [2]; mass cytometry) of the same molecule?
Answer: The value was “activity dependent accumulation”.

Question: What does the source list for `COc1cc([C@@H]2c3cc4c(cc3[C@@H](O[C@@H]3O[C@@H]5CO[C@@H](c6cccs6)O[C@H]5[C@H](O)[C@H]3O)[C@H]3COC(=O)[C@H]23)OCO4)cc(OC)c1O` [teniposide, reference compound]?
Answer: levels of pH2AX^Ser139 relative to DMSO-treated control (pH2AX^Ser139 [3]): Increased levels; inhibition of the decatenation reaction (Top2 [4]): dose-dependent inhibition; pH2AX^Ser139 levels in tumour sections relative to saline injected control (pH2AX^Ser139 [5]): increased; IC50 (Top2 [6]): 1300 to 9800 nM; half-life [7]: 1 to 5 h; inhibition at 50 µM (HL-60 cells): ≤ 60%; loss of cell viability in PANC-1 cells (PANC-1 cells): almost complete loss of cell viability
